The target of the assay is T1, His6 tagged human recombinant FABP4 (Homo sapiens, UniProt P15090).
T1 construct: purchased Cayman Chemicals 10009549
The assay is described as follows: FABP4 TR-FRET assay: displacement of BODIPY FL C12 fatty acid. The conditions noted are these: triplicates, inhibition of BODIPY FL C12 binding; for inhibition at 1 µM: 1 μM compound; for inhibition at 10 µM: 10 μM compound. An excerpt: Activity of compounds with FABP4 was profiled using a Terbium (Tb) based time resolved fluorescence energy transfer (TR-FRET) assay. The assay measures the compound mediated displacement of the fluorescent fatty acid BODIPY FL C12 (Thermo Fisher; catalog number D3822) from His6 tagged human recombinant FABP4 (His6-FABP4; Cayman Chemicals, catalog number 10009549) via recording the energy transfer from TB donor molecule on anti-His6-tag antibody to acceptor BODIPY moiety. Briefly, compounds were prepared at a concentration of 0.362 mM and 0.0362 mM, and BODIPY FL C12 was prepared at 4.2 μM, in DMSO. 1.2 μL of each compound or DMSO (vehicle control) and 1.2 μL of BODIPY FL C12 were added into the wells of a 384-well black polypropylene plate. His6-FABP4 and Tb anti-His6 antibody were prepared in the assay buffer (25 mM Tris/HCl, pH 7.4, 0.4 mg/ml y-globulins, 0.010% NP-40, 1 mM DTT) at a concentration of 83 nM and 49.6 nM, respectively. The protein and antibody solutions were then mixed at a ratio of 34:7 (v/v) and incubated on ice for 30 minutes. The assay was initiated by adding 41 μL of the resulting protein/antibody solution into the wells containing the compounds and BODIPY FL C12. The plate was centrifuged and incubated at room temperature for 10 min. The TR-FRET signals were recorded using an EnVision Multilabel plate reader (PerkinElmer; TB excitation 320 nm, BODIPY FL C12 emission 520 nm; TB emission 615 nm). Relative fluorescence ratio (520 nm*10,000/615 nm) were used to calculate the compound mediated inhibition of BODIPY C12 FL fatty acid binding to FABP4. […] Glucose consumption and FABP4 inhibition is shown below in Table 3 below.

The structures appear in SMILES notation.

T1 sequence (P15090 whole entry): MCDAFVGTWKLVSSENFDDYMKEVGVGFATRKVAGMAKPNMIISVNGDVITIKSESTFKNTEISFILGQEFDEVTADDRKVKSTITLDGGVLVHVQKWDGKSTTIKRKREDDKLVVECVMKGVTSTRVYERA

Consider `CCCCC1CCCCc2c1n(Cc1cccc(C(N)=O)c1)c1c(C(=O)O)cccc21` (stereo not shown) [6-butyl-5-[(3-carbamoylphenyl)methyl]-5H,6H,7H,8H,9H,10H-cyclohepta[b]indole-4-carboxylic acid], for which the inhibition at 1 µM was found to be 91.4% and the inhibition at 10 µM stood at 95.2%. For the compound `CCCCC1CCCc2c(n(Cc3cccc(C(=O)O)c3)c3c(C(=O)O)cccc23)C1` (stereo not shown) [7-butyl-5-[(3-carboxyphenyl)methyl]-5H,6H,7H,8H,9H,10H-cyclohepta[b]indole-4-carboxylic acid], the inhibition at 1 µM amounted to 91.8% and the inhibition at 10 µM was determined as 100%. Taken in the same sequence, the figures for `CCCC1CCCc2c1c1cccc(C(=O)O)c1n2Cc1cccc(C(N)=O)c1` (stereo not shown) [9-[(3-carbamoylphenyl)methyl]-4-propyl-2,3,4,9-tetrahydro-1H-carbazole-8-carboxylic acid] were 53.9% and 90%.

With `CCCCCC1CCc2c(c3cccc(C(=O)O)c3n2Cc2cccc(C#N)c2)C1` (stereo not shown) [9-[(3-cyanophenyl)methyl]-3-pentyl-2,3,4,9-tetrahydro-1H-carbazole-8-carboxylic acid], the inhibition at 1 µM was determined as 57.4% and the inhibition at 10 µM amounted to 83.3%. With `CCCCC1CCc2c(c3cccc(C(=O)O)c3n2Cc2cccc(C(N)=O)c2)C1` (stereo not shown) [3-butyl-9-[(3-carbamoylphenyl)methyl]-2,3,4,9-tetrahydro-1H-carbazole-8-carboxylic acid], the inhibition at 1 µM was 92.4% and the inhibition at 10 µM stood at 97.2%. For `CCCCCCC1CCCc2c(n(Cc3cccc(C(=O)O)n3)c3c(C(=O)O)cccc23)C1` (stereo not shown) [6-({4-carboxy-7-hexyl-5H,6H,7H,8H,9H,10H-cyclohepta[b]indol-5-yl}methyl)pyridine-2-carboxylic acid], the inhibition at 1 µM was found to be 91.6% and the inhibition at 10 µM was 96.5%.

For `CCCCCCC1CCCc2c(n(Cc3c(C)noc3C)c3c(C(=O)O)cccc23)C1` (stereo not shown) [5-[(3,5-dimethyl-1,2-oxazol-4-yl)methyl]-7-hexyl-5H,6H,7H,8H,9H,10H-cyclohepta[b]indole-4-carboxylic acid], the inhibition at 1 µM came out at 79.8% and the inhibition at 10 µM was determined as 95.6%. Taken in the same sequence, the figures for `CCC1CCCc2c1n(Cc1cccc(C(=O)O)c1)c1c(C(=O)O)cccc21` (stereo not shown) [9-[(3-carboxyphenyl)methyl]-1-ethyl-2,3,4,9-tetrahydro-1H-carbazole-8-carboxylic acid] were 39.6% and 78.5%. `CCCCCCC1CCCc2c(n(Cc3cccc(C(F)(F)F)n3)c3c(C(=O)O)cccc23)C1` (stereo not shown) [7-hexyl-5-{[6-(trifluoromethyl)pyridin-2-yl]methyl}-5H,6H,7H,8H,9H,10H-cyclohepta[b]indole-4-carboxylic acid]: the inhibition at 10 µM came to 79.8%. Regarding `CCCCCCC1CCCc2c(n(Cc3ccccc3C(N)=O)c3c(C(=O)O)cccc23)C1` (stereo not shown) [5-[(2-carbamoylphenyl)methyl]-7-hexyl-5H,6H,7H,8H,9H,10H-cyclohepta[b]indole-4-carboxylic acid], the inhibition at 1 µM was determined as 79.2% and the inhibition at 10 µM came to 82%. Regarding `CCC1CCc2c1n(Cc1cccc(C#N)c1)c1c(C(=O)O)cccc21` (stereo not shown) [4-[(3-cyanophenyl)methyl]-3-ethyl-1H,2H,3H,4H-cyclopenta[b]indole-5-carboxylic acid], the inhibition at 1 µM came to 54.8% and the inhibition at 10 µM amounted to 86.2%.

`CCCCCCC1CCCc2c(n(Cc3ccnc(F)c3)c3c(C(=O)O)cccc23)C1` (stereo not shown) [5-[(2-fluoropyridin-4-yl)methyl]-7-hexyl-5H,6H,7H,8H,9H,10H-cyclohepta[b]indole-4-carboxylic acid]: the inhibition at 1 µM is 92.8% and the inhibition at 10 µM turned out to be 90.4%. Take `CCCCC1CCCc2c(n(Cc3cccnc3)c3c(C(=O)O)cccc23)C1` (stereo not shown) [7-butyl-5-[(pyridin-3-yl)methyl]-5H,6H,7H,8H,9H,10H-cyclohepta[b]indole-4-carboxylic acid]: the inhibition at 1 µM was found to be 71.6% and the inhibition at 10 µM was determined as 83.8%.

Values taken from US12084419B2, “Cell metabolism modulating compounds and uses thereof” (CRESCENTA BIOSCIENCES, priority 2020, dated 2024).
